According to patent US20080161234A1, “Composition Comprising Lactic Acid and Lactoferrin” (priority 2004, published 2008):
Where a name gives a salt, the structure may show the parent alone.

How the values were obtained:
Type in all cases: cell-based
[1] = system: C. albicans (ATCC 64549); assay: Microbicidal microplate assay (viable counts), C. albicans
Method: The bacterial strains S. aureus 1800 (CCUG 1800), E. coli 06, and the yeast C. albicans (ATCC 64549) have been used in the microplate assay. All microorganisms were cultured in brain heart infusion medium (BHI) on a shaker over night at 37° C. A volume of the culture was transferred to a new tube with BHI and incubated for two more h on the shaker. The bacteria were harvested in the log phase, washed once and thereafter suspended in the broth used for the microplate assay. The suspension was adjusted spectrophotometrically and diluted to a concentration of approximately 4×10^6 cells per ml at 650 nm. Washed cells were suspended in 0.2% BP (pH 7.0) or BHI medium diluted 1/10 (0.34%, pH 6.7-6.9) (Difco, USA). The concentration of bacterial or fungal cells was spectrophotometrically adjusted. LF or peptide, serially diluted in BHIdil or BP by twofold steps (unless otherwise stated), were added in triplicate to the wells of a microtiterplate (200 ul per well). The bacterial or yeast cell solutions were added in 10 ul volumes to give a final concentration of approximately 2×10^5 cells per ml. The concentration of the stock solution was always checked by viable counts. The microplate was incubated at 37° C. in a humid chamber for 2 h unless otherwise stated. Five ul were taken from each well and added as a drop onto a blood agar plate and incubated over night at 37° C. In some experiments more thorough viable counts were performed and the killing was expressed as remaining colony forming units in relation to the inoculum. The lower limit for detection of microorganisms was 200 CFU/ml. The antimicrobial activity of human LF was analysed by the microbicidal assay described above. Different microbes such as C. albicans, E. coli and S. aureus were analysed with respect to their survival in lactate (not containing the inert gel base, which makes the gel unsuitable for the microbicidal assay) containing LF. […] LF was incubated together with various concentrations of lactate diluted in 0.2% bactopeptone and C. albicans for 2 h. Thereafter each solution was analysed for viable counts.

[2] = system: L. jensenii; assay: Survival of L. jensenii in lactate with LF; settings: lactate 1%, 0.34% BHI, CO2, 3 h
Method: L. gasseri and L. jensenii were cultured on chocolate-agar plates for 24 h in 5% CO2/95% air. They were thereafter harvested and added to BHI (0.34%). After washing the bacterial solutions were adjusted spectrophotometrically and diluted to 8×10^6 bacteria/ml.
Washed cells were suspended in 0.2% BP (pH 7.0) or BHI medium diluted 1/10 (0.34%, pH 6.7-6.9) (Difco, USA). The concentration of bacterial or fungal cells was spectrophotometrically adjusted. LF or peptide, serially diluted in BHIdil or BP by twofold steps (unless otherwise stated), were added in triplicate to the wells of a microtiterplate (200 ul per well). The bacterial or yeast cell solutions were added in 10 ul volumes to give a final concentration of approximately 2×10^5 cells per ml. The concentration of the stock solution was always checked by viable counts. The microplate was incubated at 37° C. in a humid chamber for 2 h unless otherwise stated. Five ul were taken from each well and added as a drop onto a blood agar plate and incubated over night at 37° C. In some experiments more thorough viable counts were performed and the killing was expressed as remaining colony forming units in relation to the inoculum. The lower limit for detection of microorganisms was 200 CFU/ml.
L. gasseri survived better in the assay system than did L. jensenii. Undiluted lactate (5%) affected the survival of Lactobacillus.

[3] = system: E. coli 06; assay: Microbicidal microplate-droplet assay, E. coli; set-up: key to E. coli killing, growth grade in droplet assay: +++ means that the number of colony forming units (CFU) contained within 5 ul of a droplet formed a smooth layer of bacteria; ++ means that a “ruffled” area is seen; 0 means that no CFU were found in triplicate samples of 5 ul (>99.95 killed of the inoculum)
Method: (§1) The bacterial strains S. aureus 1800 (CCUG 1800), E. coli 06, and the yeast C. albicans (ATCC 64549) have been used in the microplate assay. All microorganisms were cultured in brain heart infusion medium (BHI) on a shaker over night at 37° C. A volume of the culture was transferred to a new tube with BHI and incubated for two more h on the shaker. The bacteria were harvested in the log phase, washed once and thereafter suspended in the broth used for the microplate assay. The suspension was adjusted spectrophotometrically and diluted to a concentration of approximately 4×10^6 cells per ml at 650 nm. Washed cells were suspended in 0.2% BP (pH 7.0) or BHI medium diluted 1/10 (0.34%, pH 6.7-6.9) (Difco, USA). The concentration of bacterial or fungal cells was spectrophotometrically adjusted. LF or peptide, serially diluted in BHIdil or BP by twofold steps (unless otherwise stated), were added in triplicate to the wells of a microtiterplate (200 ul per well). The bacterial or yeast cell solutions were added in 10 ul volumes to give a final concentration of approximately 2×10^5 cells per ml. The concentration of the stock solution was always checked by viable counts. The microplate was incubated at 37° C. in a humid chamber for 2 h unless otherwise stated. Five ul were taken from each well and added as a drop onto a blood agar plate and incubated over night at 37° C. In some experiments more thorough viable counts were performed and the killing was expressed as remaining colony forming units in relation to the inoculum. The lower limit for detection of microorganisms was 200 CFU/ml. The antimicrobial activity of human LF was analysed by the microbicidal assay described above. Different microbes such as C. albicans, E. coli and S. aureus were analysed with respect to their survival in lactate (not containing the inert gel base, which makes the gel unsuitable for the microbicidal assay) containing LF.

[4] = system: S. aureus 1800 (CCUG 1800); assay: Microbicidal microplate-droplet assay, S. aureus
Method: as §1

[5] = in the absence or presence of LF

Question: How did the “Candidacidal activity with lactate replaced by HCl” value ([1]; HCl giving the same pH as lactate, undiluted, with LF) turn out when `Cl` [HCl, hydrogen chloride, reference compound] was run?
Answer: Its value is “reduced Candidacidal activity”.

Question: `CC(O)C(=O)O` (stereo not drawn) [lactate, α-hydroxipropionic acid] was tested. Which “survival of L. jensenii” value [2] did it give?
Answer: The value was “did not survive”.

Question: What about the “antibacterial activity towards E. coli” value [3, 5] of the same compound?
Answer: Its value is “good”.

Question: And the “E. coli killing, growth grade in droplet assay” value ([3]; lactate 0.2% alone (HLF 0 ug/ml), 2 h incubation)?
Answer: The value was “++”.

Question: What about the “E. coli killing, percentage of bacteria remaining in relation to the inoculum” value ([3]; lactate 0.2% alone (HLF 0 ug/ml), 5 h incubation) of the same compound?
Answer: Its value is 5%.

Question: What about the “E. coli killing, percentage of bacteria remaining in relation to the inoculum” value ([3]; lactate 1% alone (HLF 0 ug/ml), 5 h incubation) of the same compound?
Answer: Its value is 6%.

Question: And the “E. coli killing, percentage of bacteria remaining in relation to the inoculum” value ([3]; lactate 5% alone (HLF 0 ug/ml), 2 h incubation)?
Answer: The value was 0 (0 means that no CFU were found in triplicate samples of 5 ul (>99.95 killed of the inoculum)).

Question: And the “E. coli killing, percentage of bacteria remaining in relation to the inoculum” value ([3]; lactate 5% alone (HLF 0 ug/ml), 5 h incubation)?
Answer: The value was 0 (0 means that no CFU were found in triplicate samples of 5 ul (>99.95 killed of the inoculum)).

Question: And the “survival of E. coli” value ([3]; undiluted lactate (5%), 2 h)?
Answer: The value was “no bacteria survived”.

Question: And the “antimicrobial activity against E. coli” value ([3]; undiluted lactate, without LF)?
Answer: The value was “complete”.

Question: And the “reduction of Candida” value ([1]; lactate 1% without LF, 2 h)?
Answer: The value was 65%.

Question: And the antifungal activity ([1]; undiluted lactate)?
Answer: The antifungal activity was “an antifungal activity was observed”.

Question: What about the “survival of C. albicans” value ([1]; undiluted lactate (5%), 2 h) of the same compound?
Answer: Its value is “no yeast cells survived”.

Question: What about the “antimicrobial activity against C. albicans” value ([1]; undiluted lactate (5%), without LF or HL2) of the same compound?
Answer: Its value is “complete”.

Question: And the “antibacterial activity towards S. aureus” value [4, 5]?
Answer: The value was “good”.

Question: What about the “S. aureus killing, percentage of bacteria remaining in relation to the inoculum” value ([4]; lactate 0.2% alone (HLF t0 ug/ml), 2 h incubation) of the same compound?
Answer: The value was 0 (0 = no bacteria in triplicate samples of 5 ul (>99.95 killed of the inoculum).).

Question: And the “S. aureus killing, percentage of bacteria remaining in relation to the inoculum” value ([4]; lactate 0.2% alone (HLF t0 ug/ml), 5 h incubation)?
Answer: Its value is 0 (0 = no bacteria in triplicate samples of 5 ul (>99.95 killed of the inoculum).).

Question: What about the “S. aureus killing, percentage of bacteria remaining in relation to the inoculum” value ([4]; lactate 1% alone (HLF t0 ug/ml), 2 h incubation) of the same compound?
Answer: The value was 0 (0 = no bacteria in triplicate samples of 5 ul (>99.95 killed of the inoculum).).

Question: And the “S. aureus killing, percentage of bacteria remaining in relation to the inoculum” value ([4]; lactate 1% alone (HLF t0 ug/ml), 5 h incubation)?
Answer: The value was 0 (0 = no bacteria in triplicate samples of 5 ul (>99.95 killed of the inoculum).).

Question: And the “S. aureus killing, percentage of bacteria remaining in relation to the inoculum” value ([4]; lactate 5% alone (HLF t0 ug/ml), 2 h incubation)?
Answer: Its value is 0 (0 = no bacteria in triplicate samples of 5 ul (>99.95 killed of the inoculum).).

Question: What about the “S. aureus killing, percentage of bacteria remaining in relation to the inoculum” value ([4]; lactate 5% alone (HLF t0 ug/ml), 5 h incubation) of the same compound?
Answer: Its value is 0 (0 = no bacteria in triplicate samples of 5 ul (>99.95 killed of the inoculum).).

Question: What about the “antimicrobial activity against S. aureus” value ([4]; undiluted lactate, without LF) of the same compound?
Answer: The value was “complete”.
